# Test results as given in PubChem BioAssay (NCI).
#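 Values below derive from 48-hour exposures of cells grown in 96-well plates, with endpoints linearly interpolated between the two concentrations bracketing the appropriate inhibition level. Abbreviation: GI50, concentration required for 50% inhibition of growth. Definition used: TGI = concentration required for complete inhibition of growth.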
# How the values were obtained:
# Experiment in all cases: NCI anticancer screen, dose series, 48 h
# HCT-15 colon = tested on: HCT-15 colon
# M14 melanoma = tested on: M14 melanoma
# SF-295 CNS = tested on: SF-295 CNS
# SF-539 CNS = tested on: SF-539 CNS
# U251 CNS = tested on: U251 CNS
# HL-60(TB) leukemia = tested on: HL-60(TB) leukemia
# LOX IMVI melanoma = tested on: LOX IMVI melanoma
# MCF7 breast = tested on: MCF7 breast
# MDA-MB-231 breast = tested on: MDA-MB-231 breast
# NCI/ADR-RES ovarian = tested on: NCI/ADR-RES ovarian
Structure (SMILES),TGI (HCT-15 colon) [µM],TGI (M14 melanoma) [µM],TGI (SF-295 CNS) [µM],TGI (SF-539 CNS) [µM],TGI (U251 CNS) [µM],TGI (HL-60(TB) leukemia) [µM],TGI (LOX IMVI melanoma) [µM],TGI (MCF7 breast) [µM],TGI (MDA-MB-231 breast) [µM],TGI (NCI/ADR-RES ovarian) [µM],GI50 (HCT-15 colon) [µM],GI50 (LOX IMVI melanoma) [µM],GI50 (M14 melanoma) [µM],GI50 (MCF7 breast) [µM],GI50 (MDA-MB-231 breast) [µM],GI50 (NCI/ADR-RES ovarian) [µM],GI50 (SF-295 CNS) [µM],GI50 (SF-539 CNS) [µM],GI50 (U251 CNS) [µM],GI50 (HL-60(TB) leukemia) [µM]
Cn1c(=O)nc2n(-c3ccc(Br)cc3)c3ccccc3nc-2c1=O,14.7,15.5,17,19.6,19.9,,,,,,,,,,,,,,,
COC1CCCc2c(OC(C)=O)ccc(OC(C)=O)c21 (stereo not given),> 100,> 100,,,> 100,> 100,> 100,,,,,,,,,,,,,
O=c1[nH]c2nc3ccccc3c(=O)n2nc1Cc1ccccc1,> 100,> 100,> 100,> 100,> 100,,> 100,,,,,,,,,,,,,
N#CN1CC[C@@H]2CC3(CCC2C1)OCCO3 (stereo not given in full),> 100,> 100,> 100,> 100,> 100,> 100,,,,,,,,,,,,,,
Cc1nc(-n2nc(-c3ccccc3)cc2-c2ccccc2)sc1C(=O)CC(=O)C(=O)Nc1ccc(Cl)c(Cl)c1,> 100,> 100,> 100,> 100,> 100,> 100,> 100,,,,,,,,,,,,,
O=C(O)c1cccc([As]=[As]c2cccc(C(=O)O)c2)c1 (stereo not given),> 100,> 100,> 100,39.1,35.5,,69.6,> 100,39.9,> 100,,,,,,,,,,
O=C(Nc1cc(Cl)c(I)c(Cl)c1)C(F)(F)F,45.9,60.3,> 100,,> 100,58.3,,> 100,> 100,> 100,,,,,,,,,,
Cc1cccc(NC(=O)c2c(N)[n+]([O-])c3ccccc3[n+]2[O-])c1,,24.9,23.3,16.4,3.65,56.7,,,,,,,,,,,,,,
COC(=O)CNC(=O)C(=O)c1c(O)c(O)c(C(C)C)c2cc(C)c(-c3c(C)cc4c(C(C)C)c(O)c(O)c(C(=O)C(=O)NCC(=O)OC)c4c3O)c(O)c12,5.63,9.9,6.89,7.84,5.85,,6.28,6.11,9.64,9.28,1.49,1.56,2.09,1.64,1.99,1.93,1.46,1.77,1.53,
O=C(n1c2ccccc2c2n[nH]c(=S)nc21)C(F)(F)F,> 100,> 100,> 100,> 100,> 100,,> 100,,,,,,,,,,,,,
O=S(=O)(F)Cc1ccccc1,> 100,> 100,> 100,> 100,> 100,,> 100,> 100,> 100,> 100,,,,,,,,,,
O=C1NC(c2ccccc2)(c2ccccc2)C(=O)N1CCCCCCN1C(=O)NC(c2ccccc2)(c2ccccc2)C1=O,> 100,> 100,81.3,81.3,> 100,> 100,> 100,,,,,,,,,,,,,
Cc1c(C)c2cc3c(=O)c(CCl)coc3c(C)c2oc1=O,> 100,> 100,> 100,> 100,> 100,> 100,> 100,,,,,,,,,,,,,
O=C1c2ccccc2C(=O)N1c1ccc(Cc2ccc(N3C(=O)c4ccccc4C3=O)cc2)cc1,> 100,> 100,> 100,> 100,> 100,,> 100,> 100,> 100,> 100,,,,,,,,,,
CNC(=O)[C@H](Cc1c[nH]c2ccccc12)NC(=O)[C@@H](CC(=O)NO)CC(C)C,> 25,> 25,> 25,> 25,> 25,,> 25,> 25,> 25,> 25,> 25,> 25,> 25,> 25,> 25,> 25,> 25,> 25,> 25,
CCN(Cc1ccc(Cl)c(Cl)c1)c1ccc2nc(N)nc(N)c2c1C,,1.63,,1.48,,2.54,,1.52,,1.63,,,< 0.01,0.0189,,0.0104,< 0.01,0.0695,,0.195
CC(=O)/C=C1\CC(=O)N(C)c2ccccc2N1,,> 100,> 100,> 100,> 100,,> 100,,,,,,,,,,,,,
CN(C)CCCNc1ccnc2c([N+](=O)[O-])cccc12,43.7,> 100,42.2,44.5,> 100,,39,,,,,,,,,,,,,
CC(=O)OC1(Sc2ccccc2)CC2[C@H]3COC(C)(C)O[C@H]3CC[C@@]2(C)CC1=O (stereo not given in full),> 100,> 100,> 100,95.9,,,,,,,,,,,,,,,,
CCOC(=O)c1ccc(N=Cc2ccc(N(CCC#N)S(=O)(=O)c3ccccc3)cc2C)cc1,> 100,> 100,> 100,> 100,> 100,> 100,> 100,,,,,,,,,,,,,
COc1ccc2c(c1OC)C(=O)C2,> 100,> 100,> 100,,> 100,> 100,> 100,,,,,,,,,,,,,
C=C1C(=O)OC2CC1C(OC(=O)/C=C/c1ccccc1)C/C(C)=C/CC/C(C)=C/CCC2(C)O (stereo not given),2.67,3.14,3.01,2.83,4.28,,2.61,1.96,5.39,9.4,,,,,,,,,,
CC(C)(C)c1cc(C2c3cc4c(cc3OC(O)(CO)C2C(=O)O)OCO4)cc(C(C)(C)C)c1O (stereo not given) (tested in a mixture with another compound),26,30.7,30.3,25.8,29.1,38.2,29.1,,,,,,,,,,,,,
COc1ccc2nc3cc(Cl)ccc3c(Sc3ccc(N)cc3)c2c1,20.1,22,38.9,27.9,22.6,,20.9,,,,,,,,,,,,,
COc1ccc2c(=O)c(-c3cc(OC)c(OC)cc3OC)coc2c1,> 100,> 100,12.5,43.1,> 38.6,2.92,> 100,> 100,> 100,,,,,,,,,,,
